Reference: patent publication US20060135623A1, “Decrease in oxidative stress status through the administration of natural products and pharmaceutical drugs” (priority 2004, published 2006)

Legend:
C. elegans [1] = experiment: Lifespan of C. elegans under agar culture conditions; assay type: in vivo
Method: Additional studies to determine the effect of GGA on lifespan were performed using agar culture conditions. […] 100 μM GGA produces an 11% mean and 13% maximum percent increase in lifespan (Pvalue=0.039). The methods described above for the testing of GGA were employed in the testing of the class IIIa compound, LSG 712. […] 100 μM LSG 712 produces an 12% mean percent extension in lifespan (Pvalue=0.055).

C. elegans [2] = experiment: Cumulative percent loss of C. elegans cultured on agar plates over time; assay type: in vivo
Method: Another assay that can be used to measure lifespan extension in C. elegans is to measure the cumulative percent loss of C. elegans cultured on agar plates over time in the presence of GGA (LSG 711). C. elegans were maintained as described above. […] Lifespan extension in the presence of the class IIIa compound where R2 is acetone (LSG 712) was also measured in C. elegans using the cumulative percent loss of C. elegans over time as an assay. The methods described above for the testing of GGA were employed in the testing of LSG 712.

C. elegans [3] = experiment: Thermotolerance of C. elegans (35 degrees, SYTOX green fluorescence); assay type: in vivo
Method: The thermotolerance experiments were performed by workers at the Buck Institute on Aging in Novato, California under contract with the applicant. The workers at the Buck Institute performed these experiments under the direction and control of the applicant. The method used is that described in Sampayo et al., Aging Cell, 2: 319-326 (2003). In brief, 50 μl of the test compound dilution was added to a 10 ml week old agar plate spotted with 200 μl of concentrated E. coli OP50. The plates were set aside for 2-5 hours to allow the compounds to disperse. Age synchronous worm cultures of wide type (N2 strain) worms were prepared by hypochroride treatment of fertile adults and grown to three days of age at 20° C. The worms were washed off, resuspended in a small volume of S-basal and approximately 1000 worms were spotted onto each compound plate (˜1000 worms per plate) and the plates were incubated at 20° C. for 24 hours. Thermotolerance was measured using a Fluorskan Ascent fluorometer (Thermo Labsystems, MA). The fluorometer temperature was set to 35 °C and the fluorescence was measured in each well every 30 minutes over a 20-24 hour period, with a 20 millisecond integration time for each well. For SYTOX green fluorescence, the excitation wavelength was set to 485 nm and the emission wavelength at 538 nm. Analysis of individual fluorescence curves to determine the time of death was performed using the Fluoroskan Ascent software. Differences in thermotolerance were assessed using the Mantel-Haenszel Logrank test as implemented in Prism (GraphPad Software Inc.). Kaplan-Meier survival curves were generated using Prism survival analysis. […] C. elegans were maintained and handled as described above. The effect of a GGA analogue promoting thermotolerance was tested. The thermotolerance experiments were performed by workers at the Buck Institute on Aging in Novato, California under contract with the applicant. The workers at the Buck Institute performed these experiments under the direction and control of the applicant. […]

C. elegans [4] = experiment: Age dependent accumulation of lipofuscin pigment in C. elegans (confocal fluorescence); assay type: in vivo; conditions: for accumulation of lipofuscin: day 8, control about 65
Method: The effect of GGA on the age dependent accumulation of lipofuscin pigment was measured in C. elegans after treatment of worms with various concentrations of the drug. Wild type C. elegans were obtained from the University of Minnesota Caenorhabditis Genetics Center. A 250 mM stock of GGA was dissolved in ethanol and then diluted into 1× M9 OP50 worm food solution. Synchronized eggs were placed on plates containing no drug, 5 μM, 50 μM, or 500 μM GGA and allowed to hatch. On day 8, the worms were washed in 9M buffer and placed on a microscope slide. The amount of lipofuscin pigment was measured using a confocal microscope measuring fluorescence at 488 nm. Fluorescent scans were performed to quantify the amount of lipofuscin pigment. The quantification was normalized to the total area size of the worm in nm^2. The effect of LSG 712 on the age dependent accumulation of lipofuscin pigment was measured in C. elegans after treatment of worms with various concentrations of the drug. Synchronized eggs were placed on plates containing no drug and various concentrations of LSG 712 and allowed to hatch. On day 16, the worms were washed in 9M buffer and placed on a microscope slide. The amount of lipofuscin pigment was measured using a confocal microscope measuring fluorescence at 488 nm.

C. elegans [5] = experiment: Survival (life expectancy and lifespan) of C. elegans in liquid culture; assay type: in vivo; conditions: for life expectancy / lifespan: liquid culture, 25 degrees Celsius; for life expectancy: control 19 days; for lifespan: control 28 days
Method: The effect of geranylacetone (GA) and geranylgeranyl acetone (GGA) on the lengthening of lifespan and life expectancy was studied using the model organism, C. elegans, a system that is commonly used to study aging. GA and GGA were tested at three different concentrations of 5 μM 50 μM and 500 μM. The drugs were dissolved in ethanol, and thus ethanol with no drug present was used as the control in these experiments. 100 worms were used to test each concentration of the drug. GA is assumed to be a pure drug at 4.3 M and was dissolved in 100% ethanol. The drug was then diluted in S basal plus cholesterol plus bacteria OP50 such that the final concentration of ethanol on all plates was 1%. GGA was treated as 10% active with an inert carrier. Thus, all treatments were done with a 10-fold increase over the calculated concentration. GGA was suspended in 100% ethanol at 50 degrees Celsius and mixed for about hour after which the supernatant from this mixture was used. The drug was then diluted in S basal plus cholesterol plus bacteria OP50 such that the final concentration of ethanol on all plates was 1%. Wild type N2 C. elegans were obtained from the University of Minnesota Caenorhabditis Genetics Center. All assays were conducted on OP50 (CGCb) using 1× M9 OP50 worm food solution. Survival experiments were carried out in duplicate culture (2 cohorts, 50 worms each) at 25 degrees Celsius. Worms were exposed to the drugs at day 3 of life when set up in liquid culture with OP50 at 10^9 bacteria/ml. Worms were transferred daily for the first six days to remove progeny and to assess mortality. At day 10 and thereafter transfers were done 3 times per week. At each transfer, fresh drug was added to the desired concentration in a manner to achieve a final ethanol concentration of 1%.

[6] = Extrapolation of C. elegans survival data to human life expectancy and lifespan
Source text: The extension of life span in the nematode can also be directly measured. The inventor has discovered that feeding GGA to nematodes increased both the mean and maximum lifespan of the nematode by about 50 percent. The increase in lifespan found in the nematode is equivalent to an increase in human life expectancy from 75 years to about 112 years and human lifespan from 120 years to 180 years.

serum thioredoxin = experiment: Serum thioredoxin levels in human volunteers given GGA; assay type: in vivo; conditions: three 50 mg capsules per day, pre-treatment about 175 ng/ml
Method: To test the effect of GGA in providing oxidative stress protection in humans, 2 human volunteers were given three 50 mg capsules of GGA per day. Serum levels of thioredoxin, a protein important in protection from oxidative stress was measured at various time intervals as shown in FIG. 9.

[7] = extrapolated from C. elegans survival at 500 μM (FIG. 3)
[8] = feeding to nematodes, summary statement, concentration not given

## CC(=O)/C=C/C=C(\C)CC/C=C(\C)CC/C=C(\C)CCC=C(C)C [LSG 712]
C. elegans [1]; 50 μM
  mean percent increase in lifespan: 12%
C. elegans [1]; 100 μM
  mean percent increase in lifespan: 12%
C. elegans [2]; 50 μM
  maximum percent increase in protection: 25%
  mean percent increase in protection: 21%
C. elegans [2]; 100 μM
  maximum percent increase in protection: 20%
  mean percent increase in protection: 12%
C. elegans [3]; 100 μM
  mean increase in lifespan extension (thermotolerance): 19%
C. elegans [4]; day 16, compared with non-treated control worms, concentration not given
  reduction in the amount of lipofuscin pigment: 50%

## CC(=O)CC/C=C(\C)CCC=C(C)C [GA, geranylacetone]
C. elegans [5]; 5 μM
  life expectancy: 21 days
  lifespan: 32 days
C. elegans [5]; 50 μM
  life expectancy: 21 days
  lifespan: 30 days

## CC(=O)CC/C=C(\C)CC/C=C(\C)CC/C=C(\C)CCC=C(C)C [GGA, Geranylgeranyl acetone]
C. elegans [1]; 50 μM
  maximum percent increase in lifespan: 8%
  mean percent increase in lifespan: 11%
C. elegans [1]; 100 μM
  maximum percent increase in lifespan: 13%
  mean percent increase in lifespan: 11%
C. elegans [2]; 50 μM
  maximum percent increase in protection: −7%
  mean percent increase in protection: −4%
C. elegans [2]; 100 μM
  maximum percent increase in protection: 12%
  mean percent increase in protection: 7%
C. elegans [3]; 500 μM
  maximum increase in lifespan extension (thermotolerance): 27%
  mean increase in lifespan extension (thermotolerance): 29%
[6]; equivalent of nematode lifespan increase, from 75 years
  equivalent human life expectancy: about 112 years
[6]; equivalent of nematode lifespan increase, from 120 years
  equivalent human lifespan: 180 years
[6]; [7]
  predicted human life expectancy: 85-100 years
  predicted human life span: 120-159 years
C. elegans [5]; 5 μM
  life expectancy: 21 days
  lifespan: 33 days
C. elegans [5]; 50 μM
  life expectancy: 23 days
  lifespan: 35 days
C. elegans [5]; 500 μM
  life expectancy: 23 days
  lifespan: 37 days
C. elegans [5]; [8]
  increase of maximum lifespan of the nematode: about 50%
  increase of mean lifespan of the nematode: about 50%
C. elegans [4]; 5 μM
  accumulation of lipofuscin: about 15 autofluorescent intensity/area units
C. elegans [4]; 50 μM
  accumulation of lipofuscin: under 5 autofluorescent intensity/area units
C. elegans [4]; 500 μM
  accumulation of lipofuscin: under 10 autofluorescent intensity/area units
C. elegans [4]; qualitative
  lipofuscin accumulation by confocal fluorescence microscopy (FIG. 5): reduction of lipofuscin accumulation
Serum thioredoxin; one volunteer, after approximately 32 days
  serum thioredoxin: about 275 ng/ml
Serum thioredoxin; second volunteer
  serum thioredoxin: about 425 ng/ml
